Experimental data: ChEMBL document CHEMBL1133003, “GABA-Activated ligand gated ion channels: medicinal chemistry and molecular biology” (J Med Chem, 2000)

Columns and labels:
[1] = target: T1, Gamma-aminobutyric acid receptor subunit rho-2 (Homo sapiens, UniProt P28476); experiment: Activation of human rho2 GABA-C receptor at 34% of maximal GABA-induced response
[2] = target: T2, Gamma-aminobutyric acid receptor subunit rho-1 (Homo sapiens, UniProt P24046); experiment: Antagonist activity against rho-1 subunit GABA-C receptor expressed in Xenopus oocytes; assay type: functional, cell-based; settings: Oocyte
[3] = target: T1, Gamma-aminobutyric acid receptor subunit rho-2; experiment: Partial agonist activity against human rho-2 subunit GABA-C receptor expressed in Xenopus oocytes; assay type: functional, cell-based, Oocyte
[4] = target: T2, Gamma-aminobutyric acid receptor subunit rho-1; experiment: Partial agonist activity against human rho1 subunit GABA-C receptor expressed in Xenopus oocytes; assay type: functional, cell-based, Oocyte
[5] = target: GABA-A receptor; anion channel; experiment: Affinity against recombinant Gamma-aminobutyric acid A (GABA-A) receptor; assay type: protein-complex assay
[6] = target: GABA-A receptor; anion channel; experiment: Competitive antagonist activity against Gamma-aminobutyric acid A (GABA-A) receptor; assay type: functional
[7] = target: T2, Gamma-aminobutyric acid receptor subunit rho-1; experiment: Partial agonist activity against rho-1 subunit GABA-C receptor expressed in Xenopus oocytes; assay type: functional, cell-based, Oocyte
[8] = target: GABA-A receptor; anion channel; experiment: Potent antagonist activity against Gamma-aminobutyric acid A (GABA-A) receptor from rat cortex RNA expressed in Xenopus oocytes; assay type: functional, cell-based; settings: oocyte
[9] = target: T1, Gamma-aminobutyric acid receptor subunit rho-2; experiment: Full agonist activity against human rho-2 subunit GABA-C receptor expressed in Xenopus oocytes; assay type: functional, cell-based, Oocyte
[10] = target: T2, Gamma-aminobutyric acid receptor subunit rho-1; experiment: Partial agonist activity against rho-1 subunit GABA-C receptor expressed in Xenopus oocytes with low efficacy; assay type: functional, cell-based, Oocyte
[11] = target: T1, Gamma-aminobutyric acid receptor subunit rho-2; experiment: Partial agonist activity with low efficacy against rho-2 subunit GABA-C receptor expressed in Xenopus oocytes; assay type: functional, cell-based, Oocyte
[12] = target: T2, Gamma-aminobutyric acid receptor subunit rho-1; experiment: Full agonist activity against human rho-1 subunit GABA-C receptor expressed in Xenopus oocytes; assay type: functional, cell-based, Oocyte
[13] = target: T1, Gamma-aminobutyric acid receptor subunit rho-2; experiment: Partial agonist activity against rho-2 subunit GABA-C receptor expressed in Xenopus oocytes, higher intrinsic activity (Im 38%); assay type: functional, cell-based, Oocyte
[14] = target: GABA-C receptor (Homo sapiens) (UniProt P28476+A8MPY1+P24046); experiment: Antagonist activity against rho subunit Gamma-aminobutyric acid C (GABA-C) receptor expressed in Xenopus oocytes; assay type: functional, cell-based; settings: Oocyte
[15] = target: T2, Gamma-aminobutyric acid receptor subunit rho-1; experiment: Partial agonist activity against rho-1 subunit GABA-C receptor expressed in Xenopus oocytes, low intrinsic activity (Im 3%); assay type: functional, cell-based, Oocyte
[16] = target: T2, Gamma-aminobutyric acid receptor subunit rho-1; experiment: Partial agonist activity against human rho-1 subunit GABA-C receptor expressed in Xenopus oocytes; assay type: functional, cell-based, Oocyte
[17] = target: GABA-A receptor; anion channel; experiment: Inhibitory activity against Gamma-aminobutyric acid A (GABA-A) receptor from rat cultured cortical neuron RNA expressed in Xenopus oocytes; assay type: functional, cell-based; settings: oocyte
[18] = target: GABA-A receptor; anion channel; experiment: Non-competitive antagonist activity against Gamma-aminobutyric acid A (GABA-A) receptor; assay type: functional, Rattus norvegicus
[19] = target: GABA-A receptor; anion channel; experiment: Antagonist activity against Gamma-aminobutyric acid A (GABA-A) receptor; assay type: functional, Rattus norvegicus
GABA-C receptor = GABA-C receptor (Homo sapiens, UniProt A8MPY1+P24046+P28476); experiment: Agonist activity against Gamma-aminobutyric acid type C (GABA-C) receptor derived from bovine retinal RNA expressed in Xenopus oocytes; assay type: functional, cell-based, Bos taurus, Oocyte
[20] = target: T1, Gamma-aminobutyric acid receptor subunit rho-2; experiment: Partial agonist activity against homomeric rho-2 subunit GABA-C receptor expressed in Xenopus oocytes; assay type: functional, cell-based, Oocyte

T1 sequence (P28476 whole entry): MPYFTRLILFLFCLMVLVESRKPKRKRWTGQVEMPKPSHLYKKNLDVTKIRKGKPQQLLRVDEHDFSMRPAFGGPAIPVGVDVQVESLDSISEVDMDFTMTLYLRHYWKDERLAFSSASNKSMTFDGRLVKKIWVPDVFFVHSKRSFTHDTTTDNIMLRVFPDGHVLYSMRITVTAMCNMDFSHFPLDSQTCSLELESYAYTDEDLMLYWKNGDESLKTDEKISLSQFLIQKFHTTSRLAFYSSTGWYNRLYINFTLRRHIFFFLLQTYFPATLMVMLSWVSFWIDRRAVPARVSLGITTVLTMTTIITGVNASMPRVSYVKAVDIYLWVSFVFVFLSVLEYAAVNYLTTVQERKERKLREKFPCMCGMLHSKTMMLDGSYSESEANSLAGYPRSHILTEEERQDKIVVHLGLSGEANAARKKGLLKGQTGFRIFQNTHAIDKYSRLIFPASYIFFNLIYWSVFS
T2 sequence (P24046 whole entry): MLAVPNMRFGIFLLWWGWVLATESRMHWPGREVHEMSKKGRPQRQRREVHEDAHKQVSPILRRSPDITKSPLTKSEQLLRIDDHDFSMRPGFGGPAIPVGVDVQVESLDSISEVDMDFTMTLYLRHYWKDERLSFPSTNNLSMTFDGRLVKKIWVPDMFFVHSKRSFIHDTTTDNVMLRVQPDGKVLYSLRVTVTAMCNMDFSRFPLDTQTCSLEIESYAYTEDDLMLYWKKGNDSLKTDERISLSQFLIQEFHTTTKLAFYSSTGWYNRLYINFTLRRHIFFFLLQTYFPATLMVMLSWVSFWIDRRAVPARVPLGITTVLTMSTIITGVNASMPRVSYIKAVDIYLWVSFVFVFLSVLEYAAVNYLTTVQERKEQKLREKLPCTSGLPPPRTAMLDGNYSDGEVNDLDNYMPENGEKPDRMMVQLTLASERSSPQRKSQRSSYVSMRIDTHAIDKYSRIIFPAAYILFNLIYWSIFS
GABA-C receptor (Homo sapiens), sequence (A8MPY1 whole entry, looked up): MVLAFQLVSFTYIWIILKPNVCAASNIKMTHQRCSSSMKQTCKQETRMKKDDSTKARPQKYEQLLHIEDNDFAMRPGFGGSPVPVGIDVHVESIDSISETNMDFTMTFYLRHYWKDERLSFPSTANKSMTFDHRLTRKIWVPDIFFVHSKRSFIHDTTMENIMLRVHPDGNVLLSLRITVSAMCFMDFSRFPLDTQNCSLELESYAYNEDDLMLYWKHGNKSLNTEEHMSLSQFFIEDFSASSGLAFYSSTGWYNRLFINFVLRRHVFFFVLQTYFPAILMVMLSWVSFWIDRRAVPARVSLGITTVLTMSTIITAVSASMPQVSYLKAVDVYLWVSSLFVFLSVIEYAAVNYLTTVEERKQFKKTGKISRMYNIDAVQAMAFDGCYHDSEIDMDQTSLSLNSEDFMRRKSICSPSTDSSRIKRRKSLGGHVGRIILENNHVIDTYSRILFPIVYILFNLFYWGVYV
GABA-C receptor (Homo sapiens), sequence (P24046 whole entry, looked up): as the sequence (P24046 whole entry) above
GABA-C receptor (Homo sapiens), sequence (P28476 whole entry, looked up): as the sequence (P28476 whole entry) above
GABA-C receptor, sequence (P28476 whole entry): as above
GABA-C receptor, sequence (A8MPY1 whole entry): as the sequence (A8MPY1 whole entry, looked up) above
GABA-C receptor, sequence (P24046 whole entry): as the sequence (P24046 whole entry) above

Compound: C/C(=C\CN)C(=O)O
- EC50 [1]: 101 µM
- Kb [2]: 45 µM

Compound: NC/C=C\C(=O)O
- EC50 [3]: 70 µM
- EC50 [4]: 74 µM

Compound: O=c1cc(-c2cccc([N+](=O)[O-])c2)oc2cccc(Br)c12
- Ki [5]: 0.03 µM

Compound: c1ccc2c(NCCCCCCCNc3c4c(nc5ccccc35)CCCC4)c3c(nc2c1)CCCC3
- IC50 [6]: 6 µM

Compound: NC/C=C(\F)C(=O)O
- EC50 [7]: 2.43 µM

Compound: O=S(=O)(O)C1CCNCC1
- Kd [8]: 104 µM

Compound: NC[C@@H]1C[C@@H]1C(=O)O (relative stereo)
- EC50 [9]: 34.5 µM
- EC50 [10]: 20 µM
- EC50 [11]: 17.5 µM
- EC50 [12]: 68 µM

Compound: COC(=O)[C@H]1[C@@H](OC(=O)c2ccccc2)C[C@@H]2CC[C@H]1N2C [COCAINE]
- IC50 [5]: 127 µM

Compound: NCCCS(=O)O [HOMOHYPOTAURINE]
- EC50 [4]: 4.6 µM

Compound: O=C(O)Cc1c[nH]cn1 [IMIDAZOLE ACETIC ACID]
- EC50 [13]: 3 µM
- Kb [14]: 1.5 µM
- EC50 [15]: 16 µM

Compound: NCc1cc(=O)[nH]o1 [MUSCIMOL]
- Kd [3]: 1.4 µM
- Kd [16]: 2.3 µM

Compound: CCCCCCCC/C=C\CCCCCCCC(N)=O [OLEAMIDE]
- EC50 [17]: 15 µM

Compound: Cc1nccn1CC1CCc2c(c3ccccc3n2C)C1=O (centres undefined) [ONDANSETRON]
- IC50 [18]: 10 µM

Compound: Cc1ccc2c(c1)c1c3n2CCNC3CCC1 (centres undefined) [PIRLINDOLE]
- EC50 [19]: 12 µM

Compound: NC/C=C/C(=O)O [t-4-AMINOCROTONIC ACID (TACA)]
- Kd (GABA-C receptor): 0.6 µM
- EC50 [20]: 0.4 µM
